Experimental data published in patent US20100068208A1, “Degranulation inhibitor” (priority 2005, published 2010).

Assays:
TGR12 = assay type: cell-based, human; conditions: CHO-TGR12, 1 μM
Experimental: CHO/dhfr^− cells (hereinafter CHO) were incubated in α-MEM (Invitrogen) supplemented with 10% fetal calf serum. After a termination codon in the TGR12-encoding nucleotide sequence was removed, a nucleotide sequence ligated with the nucleotide sequence encoding GFP (Wako Pure Chemical) [hereinafter briefly referred to as TGR12-GFP (DNA having the nucleotide sequence represented by SEQ ID NO: 31)] was incorporated into vector plasmid pAKKO-111H (the same vector plasmid as pAKKO1.11H described in Biochim. Biophys. Acta, 1219, 251-259 (1994)) for animal cell expression, and the vector plasmid was stably expressed to establish TGR12-GFP-expressed CHO cell line (hereinafter CHO-TGR12). CHO-TGR12 was incubated in nucleic acid-free α-MEM medium (Invitrogen) containing 10% dialyzed fetal calf serum.
CHO-TGR12 was plated in a 96-well plate at a density of 30,000 cells/well. After incubation overnight, the medium was discarded and 100 μL/well of assay buffer [Hank's Balanced Salt Solution (Invitrogen), 20 mM HEPES (Dojin Chemical Laboratory) and 2.5 mM Probenecid (Sigma)] containing 4 μM Fluo3-AM (Dojin Chemical Laboratory) was added, which was then allowed to stand for an hour at 37° C. […] After the cells were washed with assay buffer, fluorescence reflecting changes in intracellular calcium levels was assayed on FLIPR (Molecular Device). Ten seconds after initiation of the assay, 50 μL of a sample was added at a rate of 50 μL/second. Fluorescence measurement was taken every 1 second during the first 60 seconds and then every 6 seconds during the next 120 seconds; the highest fluorescence intensity over a 3 minute period was taken as the maximum activity under the stimulation condition, representing the mean value of 3 wells. The EC50 values were determined using Graphpad PRISM 4 (Graphpad Software).

RBL-2H3 = test: Intracellular calcium increasing activity in RBL2H3 (FLIPR); assay type: cell-based; conditions: RBL2H3, 1 μM
Experimental: (§1) RBL-2H3 (hereinafter RBL2H3) was incubated in α-MEM (Invitrogen) supplemented with 10% fetal calf serum. Vector plasmid pcDNA3.1 for animal cell expression, in which the nucleotide sequence containing the initiation codon to the termination codon of human TGR12 (DNA having the nucleotide sequence represented by SEQ ID NO: 32) was incorporated, was stably expressed in RBL-2H3 to establish human TGR12-expressed RBL-2H3 cell line (hereinafter RBL2H3-TGR12). RBL2H3-TGR12 was incubated in α-MEM (Invitrogen) supplemented with 10% fetal calf serum and 200 μg/mL of Geneticin.
(§2) The intracellular calcium increasing activity was assayed as follows. RBL2H3 and RBL2H3-TGR12 were plated in a 96-well plate at a density of 40,000 cells/well and incubated overnight. The medium was then discarded and 100 μL/well of 4 μM Fluo3-AM (Dojin Kagaku)-containing assay buffer [Hank's Balanced Salt Solution (Invitrogen), 20 mM HEPES (Dojin Kagaku) and 2.5 mM Probenecid (Sigma)] was added. The mixture was allowed to stand for an hour at 37° C. Various TGR12 (Peptide Institute, Inc.) or calcium ionophore A23187 (Wako Pure Chemical) was diluted in 0.05% CHAPS-containing assay buffer. After the cells were washed with the assay buffer, fluorescence emitted with changes in intracellular calcium was measured using FLIPR (Molecular Device). A sample, 50 μL, was added at a rate of 50 μL/sec. 10 seconds after initiation of the assay. Fluorescence was measured every 1 second during the first 60 seconds and every 6 seconds during the next 120 seconds. The highest fluorescence intensity during 3 minutes was made the maximum activity under the stimulation conditions, which was taken as an average of 3 wells. The EC50 values were calculated using Graphpad PRISM 4 (Graphpad Software).

human TGR12 = biological target: T1, human TGR12 (Homo sapiens, UniProt Q96LB1); test: Intracellular calcium increasing activity in RBL2H3-TGR12 (FLIPR); assay type: cell-based; conditions: RBL2H3-TGR12, 1 μM
T1 construct: expressed in transfected cells
T1 sequence (Q96LB1 1-330): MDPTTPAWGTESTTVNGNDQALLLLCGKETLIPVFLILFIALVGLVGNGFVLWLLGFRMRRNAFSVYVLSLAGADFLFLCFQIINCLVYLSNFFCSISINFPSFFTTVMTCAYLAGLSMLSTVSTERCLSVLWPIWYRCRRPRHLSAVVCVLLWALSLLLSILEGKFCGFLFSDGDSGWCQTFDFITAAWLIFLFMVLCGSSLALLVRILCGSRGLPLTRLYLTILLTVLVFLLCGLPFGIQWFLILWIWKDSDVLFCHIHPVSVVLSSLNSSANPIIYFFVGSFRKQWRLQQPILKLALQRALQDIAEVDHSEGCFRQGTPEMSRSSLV
Experimental: as §1, §2

[1] = tested on: human mast cell line LAD 2; test: Effect of NK1 receptor antagonists on substance P- or A23187-induced degranulation of LAD 2; assay type: cell-based
Experimental: Subsequently, Tyrode's buffer containing 50 μL of NK1 antagonist GR-82334 (Sigma, Inc.) in various concentrations or L-703606 (Sigma, Inc.) was added and incubation was continued at 37° C. for 5 minutes. […] Next, 0.2 M glycine/NaCO3 (pH 10.7) was added in a volume of 0.1-fold of the reaction solution to stop the reaction. The activity was then assayed using Fusion-α (Perkin-Elmer). […] The inhibition activity by the NK1 receptor antagonist was expressed as the percentage of the β-hexosaminidase activity when the NK1 antagonist was added in various concentrations, based on the β-hexosaminidase activity when no NK1 antagonist was added.

SMILES	maximum activity in the calcium increasing effect (TGR12)	maximum activity in the calcium increasing effect (RBL-2H3)	maximum activity in the calcium increasing effect (human TGR12)	degranulation, % of β-hexosaminidase activity without NK1 antagonist ([1]; A23187 stimulation 0.3 μM, antagonist 100 nM)	degranulation, % of β-hexosaminidase activity without NK1 antagonist ([1]; A23187 stimulation 0.3 μM, antagonist 300 nM)	degranulation, % of β-hexosaminidase activity without NK1 antagonist ([1]; A23187 stimulation 0.3 μM, antagonist 1 μM)	degranulation, % of β-hexosaminidase activity without NK1 antagonist ([1]; A23187 stimulation 0.3 μM, antagonist 3 μM)	degranulation, % of β-hexosaminidase activity without NK1 antagonist ([1]; A23187 stimulation 0.3 μM, antagonist 10 μM)	degranulation, % of β-hexosaminidase activity without NK1 antagonist ([1]; A23187 stimulation 0.3 μM, antagonist 30 μM)	inhibition of the degranulation by the substance P and A23187 stimulation ([1]; concentration range of 3 μM)	inhibition of the degranulation by the substance P and A23187 stimulation ([1]; concentration range of 10 μM to 30 μM, non-specifically to TGR12 and NK1 receptor)	degranulation, % of β-hexosaminidase activity without NK1 antagonist ([1]; substance P stimulation 0.3 μM, antagonist 100 nM)	degranulation, % of β-hexosaminidase activity without NK1 antagonist ([1]; substance P stimulation 0.3 μM, antagonist 300 nM)	degranulation, % of β-hexosaminidase activity without NK1 antagonist ([1]; substance P stimulation 0.3 μM, antagonist 1 μM)	degranulation, % of β-hexosaminidase activity without NK1 antagonist ([1]; substance P stimulation 0.3 μM, antagonist 3 μM)	degranulation, % of β-hexosaminidase activity without NK1 antagonist ([1]; substance P stimulation 0.3 μM, antagonist 10 μM)	degranulation, % of β-hexosaminidase activity without NK1 antagonist ([1]; substance P stimulation 0.3 μM, antagonist 30 μM)
CNc1ccc2oc(C[C@H]3O[C@@]4(CC[C@H]3C)O[C@H]([C@H](C)C(=O)c3ccc[nH]3)[C@H](C)C[C@H]4C)nc2c1C(=O)O [A23187]	27379	25338	25624	–	–	–	–	–	–	–	–	–	–	–	–	–	–
Ic1ccccc1CN[C@@H]1C2CCN(CC2)[C@@H]1C(c1ccccc1)c1ccccc1 [L-703606]	–	–	–	98.4%	97.2%	97.4%	91.5%	37.1%	2.4%	did not inhibit	inhibited	101.1%	97.9%	98.8%	100.0%	39.4%	3.2%
